In US12570612B2, “Substituted nitrogen heterocyclic compound and anesthetic effect thereof” (priority 2019, dated 2026):

Columns and labels:
H295R cell line [1] = assay: Adrenocortical function in vitro test: secretion of cortisol and corticosterone, Group B compounds; type: cell-based; settings: H295R cells; for EC50: 0.1-10000 nM, HPLC-MS/MS
Sprague-Dawley rats = assay: animal or person; settings: for ED50: LORR in rats, tail vein, brackets = 95% confidence limit; for Approximate therapeutic index / Minimal lethal dose: rats
Experimental: Adult male Sprague-Dawley rats (250-300 g) were selected for the experiment. […] The anesthesia effects of the compounds were assessed in rats using a LORR assay and a period >30 s was considered as an indicator of general anesthesia.

H295R cell line [2] = assay: Adrenocortical function in vitro test: secretion of cortisol and corticosterone, Group A compounds; type: cell-based; settings: H295 cells; for EC50: 0.1-10000 nM, HPLC-MS/MS
[3] = read-out: EC50 (Corticosterone)
[4] = Homo sapiens, NCI-H295R, read-out: EC50 (Corticosterone)
[5] = Homo sapiens, NCI-H295R, read-out: EC50 (Cortisol)

SMILES | Corticosterone as an indicator to determine the presence of inhibition (H295R cell line [1]) | Cortisol as an indicator to determine the presence of inhibition (H295R cell line [1]) | EC50 (H295R cell line [1]; [3]) [nM] | EC50 (H295R cell line [1]; read-out: EC50 (Cortisol)) [nM] | ED50 (Sprague-Dawley rats) | Approximate therapeutic index (Sprague-Dawley rats) | Minimal lethal dose (Sprague-Dawley rats) [mg/kg] | EC50 (H295R cell line [1]; [4]) [nM] | EC50 (H295R cell line [1]; [5]) [nM] | ED50 (Sprague-Dawley rats; Rattus norvegicus) [mg/kg] | Corticosterone as an indicator to determine the presence of inhibition (H295R cell line [2]) | Cortisol as an indicator to determine the presence of inhibition (H295R cell line [2]) | EC50 (H295R cell line [2]; [3]) [µM] | EC50 (H295R cell line [2]; read-out: EC50 (Cortisol)) [µM]
CC=CC1(OC(=O)c2cnnn2C(C)c2ccccc2)COC1 (mixture of isomers) [Compound B21] | 0 | 0 | > 100 | > 100 | B (B indicates that the measured ED50 is in the range of 0.50-1.00 mg/kg (excluding 0.50 mg/kg, including 1.00 mg/kg)) | >11 | >8 |  |  |  |  |  |  | 
CCOC(=O)c1cnnn1[C@H](C)c1ccccc1 [Compound B1] | 0 | 0 | > 100 | > 50 | A (A indicates that the measured ED50 is in the range of 0.04-0.50 mg/kg (including 0.04 and 0.50 mg/kg)) | >20 | >8 |  |  |  |  |  |  | 
C[C@H](c1ccccc1)n1nncc1C(=O)OCC1CC1 [Compound B7] | 0 | 0 |  |  |  | >31 | >24 | > 100 | > 100 | 0.5 to 1 |  |  |  | 
CO[C@H]1C[C@@H](OC(=O)c2cnnn2[C@H](C)c2ccccc2)C1 [Compound B8] | 0 | 0 |  |  |  | >9 | >8 | > 1000 | > 1000 | 0.5 to 1 |  |  |  | 
C=CCOC(=O)c1cnnn1[C@H](C)c1ccccc1 [Compound B10] | 0 | 0 |  |  |  | >16 | >11 | > 100 | > 100 | 0.5 to 1 |  |  |  | 
C=C=CC1(OC(=O)c2cnnn2[C@H](C)c2ccccc2)CCCCC1 [Compound B11] | 0 | 0 | > 1000 | > 1000 | B (B indicates that the measured ED50 is in the range of 0.50-1.00 mg/kg (excluding 0.50 mg/kg, including 1.00 mg/kg)) | >8 | >6 |  |  |  |  |  |  | 
C=CC(CC)OC(=O)c1cnnn1[C@H](C)c1ccccc1 (stereo partly drawn) [Compound B13] | 0 | 0 |  |  |  | >2 | >1 | > 1000 | > 1000 | 0.5 to 1 |  |  |  | 
CC(=O)C1=C(OC(=O)c2cnnn2[C@H](C)c2ccccc2)CCCC1 [Compound B15] | 0 | 0 |  |  |  | >9 | >9 | > 1000 | > 1000 | 0.5 to 1 |  |  |  | 
CC(C)OC(=O)c1cnnn1[C@H](C)c1ccccc1 [Compound B17] | 0 | 0 |  |  |  | >56 | >16 | > 1000 | > 1000 | 0.04 to 0.5 |  |  |  | 
C[C@H](c1ccccc1)n1nncc1C(=O)OC1CC1 [Compound B18] | 0 | 0 |  |  |  | >12 | >14 | > 100 | > 100 | 1 to 2 |  |  |  | 
CC(C)O[C@H]1C[C@@H](OC(=O)c2cnnn2[C@H](C)c2ccccc2)C1 [Compound B26] | 0 | 0 |  |  |  | >10 | >12 | > 100 | > 100 | 1 to 2 |  |  |  | 
COC(=O)C1=C(OC(=O)c2cnnn2[C@H](C)c2ccccc2)CCCC1 [Compound B30] | 0 | 0 |  |  |  | >10 | >10 | > 1000 | > 1000 | 0.5 to 1 |  |  |  | 
C=C=CC1(OC(=O)c2c(F)nnn2[C@H](C)c2ccccc2)COC1 [Compound B35] | 0 | 0 |  |  |  | >29 | >8 | > 1000 | > 1000 | 0.04 to 0.5 |  |  |  | 
COC(=O)C1=C(OC(=O)c2c(F)nnn2[C@H](C)c2ccccc2)CCC1 [Compound B36] | 0 | 0 |  |  |  | >7 | >5 | > 1000 | > 1000 | 0.5 to 1 |  |  |  | 
CO[C@H]1C[C@@H](OC(=O)c2c(F)nnn2[C@H](C)c2ccccc2)C1 [Compound B40] | 0 | 0 |  |  |  | >6 | >6 | > 100 | > 100 | 0.5 to 1 |  |  |  | 
C=CC1(OC(=O)c2c(F)nnn2[C@H](C)c2ccccc2)COC1 [Compound B51] | 0 | 0 |  |  |  | >12 | >14 | > 1000 | > 1000 | 1 to 2 |  |  |  | 
CCOC(=O)c1c(Cl)nnn1[C@H](C)c1ccccc1 [Compound B65] | 0 | 0 |  |  |  | >13 | >9 | > 1000 | > 1000 | 0.5 to 1 |  |  |  | 
C[C@H](c1ccccc1)n1nnc(Cl)c1C(=O)OC1CCC1 [Compound B70] | 0 | 0 | > 1000 | > 1000 | D (D indicates that the measured ED50 is in the range of 2.00-10.00 mg/kg (excluding 2.00 mg/kg, including 10.00 mg/kg)) | >2 | >15 |  |  |  |  |  |  | 
CCOC(=O)c1c(Br)nnn1[C@H](C)c1ccccc1 [Compound B99] | 0 | 0 | > 3000 | > 3000 | A (A indicates that the measured ED50 is in the range of 0.04-0.50 mg/kg (including 0.04 and 0.50 mg/kg)) | >16 | >8 |  |  |  |  |  |  | 
C[C@H](c1ccccc1)n1cncc1C(=O)O [Etomidate acid, etomidate acid, reference compound] | 0 | 0 | > 10000 | > 10000 |  |  |  |  |  |  | 0 | 0 | > 10 | > 10
